Drawing on patent US6855710B2, “Substituted indolines with an inhibitory effect on various kinases and complexes of CDKs” (Boehringer Ingelheim Pharma KG, priority 1998, dated 2005), this text covers melting point for 32 compounds.

SMILES strings stand for the structures.

Take `C[C@H](NC(=O)OC(C)(C)C)c1ccc(N/C(=C2\C(=O)Nc3ccc([N+](=O)[O-])cc32)c2ccccc2)cc1` [Example 123, (Z,S)-3-{1-[4-(1-tert.butoxycarbonylamino-ethyl)-phenylamino]-1-phenyl-methylidene}-5-nitro-2-indolinone]: the melting point (as a rule, the temperature, or range, at which the solid turns liquid) was 247 to 249 °C (dec.).
Compound `CC(=O)NCC(=O)Nc1ccc(N/C(=C2\C(=O)Nc3ccccc32)c2ccccc2)cc1` [Example 368, (Z)-3-{1-[4-(acetylaminomethylcarbonylamino)-phenylamino]-1-phenyl-methylidene}-2-indolinone] yielded a melting point of 245 to 247 °C.
`CC(=O)N(CCN(C)C)c1ccc(N/C(=C2\C(=O)Nc3ccc([N+](=O)[O-])cc32)c2ccccc2)cc1` [Example 328, (Z)-3-{1-[4-(N-(2-dimethylaminoethyl)-N-acetyl-amino)-phenylamino]-1-phenyl-methylidene}-5-nitro-2-indolinone] returned a melting point of 228 to 230 °C.
The value for `CCCS(=O)(=O)N(CC(=O)N(C)C)c1ccc(N/C(=C2\C(=O)Nc3ccccc32)c2ccccc2)cc1` [Example 305, (Z)-3-{1-[4-(N-(dimethylaminocarbonylmethyl)-N-propylsulphonyl-amino)-phenylamino]-1-phenyl-methylidene}-2-indolinone] was 178 to 180 °C; that for `CN(C)CCN(C)C(=O)c1ccc(N/C(=C2\C(=O)Nc3ccccc32)c2ccccc2)cc1` [Example 391, (Z)-3-{1-[4-(N-(2-dimethylaminoethyl)-N-methyl-aminocarbonyl)-phenylamino]-1-phenyl-methylidene}-2-indolinone] was 181 to 183 °C.
For `CC(C)(C)OC(=O)NC(Cc1ccc(N/C(=C2\C(=O)Nc3ccc([N+](=O)[O-])cc32)c2ccccc2)cc1)C(=O)O` (centres unmarked) [Example 226, (Z)-3-{1-[4-(2-tert.butoxycarbonylamino-2-carboxy-ethyl)-phenylamino]-1-phenyl-methylidene}-5-nitro-2-indolinone], the melting point is 235 °C (dec.).
The value for `Nc1cccc(N/C(=C2\C(=O)Nc3ccccc32)c2ccccc2)c1` [Example 69, (Z)-3-[1-(3-aminophenylamino)-1-phenyl-methylidene]-2-indolinone] was 267 to 268 °C; that for `CS(=O)(=O)NCc1ccc(N/C(=C2\C(=O)Nc3ccc([N+](=O)[O-])cc32)c2ccccc2)cc1` [Example 167, (Z)-3-[1-(4-methylsulphonylaminomethyl-phenylamino)-1-phenyl-methylidene]-5-nitro-2-indolinone] was 294 to 296 °C; that for `O=C(O)CNC(=O)c1ccc(N/C(=C2\C(=O)Nc3ccccc32)c2ccccc2)cc1` [Example 393, (Z)-3-{1-[4-(carboxymethylaminocarbonyl)-phenylamino]-1-phenyl-methylidene}-2-indolinone] was 245 to 247 °C.
Consider `CS(=O)(=O)N(CCN1CCOCC1)c1cccc(N/C(=C2\C(=O)Nc3ccccc32)c2ccccc2)c1` [Example 325, (Z)-3-{1-[3-(N-(2-morpholinoethyl)-N-methylsulphonyl-amino)-phenylamino]-1-phenyl-methylidene}-2-indolinone], for which the melting point lay in the range of 177 to 179 °C.
The compound `O=C1Nc2ccc([N+](=O)[O-])cc2/C1=C(/Nc1ccc(CN2CCC(C(=O)O)CC2)cc1)c1ccccc1` [Example 177, (Z)-3-{1-[4-(4-carboxypiperidinomethyl)-phenylamino]-1-phenyl-methylidene}-5-nitro-2-indolinone] showed a melting point of 207 °C.
Take `CN(C(=O)CN1CCN(Cc2ccccc2)CC1)c1ccc(N/C(=C2\C(=O)Nc3ccccc32)c2ccccc2)cc1` [Example 53, (Z)-3-{1-[4-(N-(4-benzylpiperazinomethylcarbonyl)-N-methyl-amino)-phenylamino]-1-phenyl-methylidene}-2-indolinone]: the melting point was 157 to 158 °C.
Then `CCCC(=O)N(CCN1CCOCC1)c1ccc(N/C(=C2\C(=O)Nc3ccc([N+](=O)[O-])cc32)c2ccccc2)cc1` [Example 337, (Z)-3-{1-[4-(N-(2-morpholinoethyl)-N-propylcarbonyl-amino)-phenylamino]-1-phenyl-methylidene}-5-nitro-2-indolinone], with 228 °C.
Then `CN(C(=O)CN1CCCCC1)c1ccc(N/C(=C2\C(=O)Nc3ccccc32)c2ccccc2)cc1` [Example 50, (Z)-3-{1-[4-(N-piperidinomethylcarbonyl-N-methyl-amino)-phenylamino]-1-phenyl-methylidene}-2-indolinone], with 230 to 235 °C (dec.).
Then `Br.COCCNCCc1ccc(N/C(=C2\C(=O)Nc3ccc([N+](=O)[O-])cc32)c2ccccc2)cc1` [Example 257, (Z)-3-{1-[4-(2-(2-methoxyethylamino)-ethyl)-phenylamino]-1-phenyl-methylidene}-5-nitro-2-indolinone-hydrobromide], with 297 to 299 °C; and `CN(C)CCNS(=O)(=O)c1ccc(N/C(=C2\C(=O)Nc3ccc([N+](=O)[O-])cc32)c2ccccc2)cc1` [Example 401, (Z)-3-{1-[4-(2-dimethylamino-ethylaminosulphonyl)-phenylamino]-1-phenyl-methylidene}-5-nitro-2-indolinone], with 260 to 261 °C.
For the compound `O=CN(CCN1CCOCC1)c1ccc(N/C(=C2\C(=O)Nc3ccc([N+](=O)[O-])cc32)c2ccccc2)cc1` [Example 333, (Z)-3-{1-[4-(N-(2-morpholinoethyl)-N-formyl-amino)-phenylamino]-1-phenyl-methylidene}-5-nitro-2-indolinone], the melting point amounted to 207 °C.
For the compound `CN(C(=C1C(=O)Nc2ccccc21)c1ccccc1)c1ccc(C#N)cc1` [Example 61, 3-{1-[N-(4-cyanophenyl)-N-methyl-amino]-1-phenyl-methylidene}-2-indolinone], the melting point was determined as 239 °C.
The value for `CN(C)C(=O)CCNCc1ccc(N/C(=C2\C(=O)Nc3ccc([N+](=O)[O-])cc32)c2ccccc2)cc1` [Example 243, (Z)-3-{1-[4-(2-dimethylaminocarbonyl-ethylaminomethyl)-phenylamino]-1-phenyl-methylidene}-5-nitro-2-indolinone] was 215 to 217 °C.
Then `CCCC(=O)N(CCN1CCOCC1)c1ccc(N/C(=C2\C(=O)Nc3ccccc32)c2ccccc2)cc1` [Example 351, (Z)-3-{1-[4-(N-(2-morpholinoethyl)-N-propylcarbonyl-amino)-phenylamino]-1-phenyl-methylidene}-2-indolinone], with 219 °C; and `CCOC(=O)CNS(=O)(=O)c1ccc(N/C(=C2\C(=O)Nc3ccccc32)c2ccccc2)cc1` [Example 406, (Z)-3-{1-[4-(ethoxycarbonylmethylaminosulphonyl)-phenylamino]-1-phenyl-methylidene}-2-indolinone], with 196 to 199 °C.
`CC(=O)N(CC(=O)N(C)C)c1ccc(N/C(=C2\C(=O)Nc3ccccc32)c2ccccc2)cc1` [Example 355, (Z)-3-{1-[4-(N-dimethylaminocarbonylmethyl-N-acetyl-amino)-phenylamino]-1-phenyl-methylidene}-2-indolinone] yielded a melting point of 264 to 268 °C.
The value for `CN(C)CCc1ccc(N/C(=C2\C(=O)Nc3ccccc32)c2ccccc2)cc1` [Example 268, (Z)-3-{1-[4-(2-dimethylamino-ethyl)-phenylamino]-1-phenyl-methylidene}-2-indolinone] was 244 to 246 °C; that for `CN(C)Cc1ccc(N/C(=C2\C(=O)Nc3ccccc32)c2ccc(Cl)cc2)cc1` [Example 221, (Z)-3-[1-(4-dimethylaminomethyl-phenylamino)-1-(4-chlorophenyl)-methylidene]-2-indolinone] was 213 °C.
On to `CN(C)CCN(C)C(=O)CN(c1ccc(N/C(=C2\C(=O)Nc3ccccc32)c2ccccc2)cc1)S(C)(=O)=O` [Example 293, (Z)-3-{1-[4-(N—((N-(2-dimethylaminoethyl)-N-methyl-amino)-carbonylmethyl)-N-methylsulphonyl-amino)-phenylamino]-1-phenyl-methylidene}-2-indolinone], for which the melting point was found to be 170 °C.
Turning to `CN(C)CC(=O)NCc1cccc(N/C(=C2\C(=O)Nc3ccc([N+](=O)[O-])cc32)c2ccccc2)c1` [Example 106, (Z)-3-[1-(3-dimethylaminomethylcarbonylaminomethyl-phenylamino)-1-phenyl-methylidene]-5-nitro-2-indolinone], the melting point is 171 to 173 °C.
With `CC(C)C(=O)N(CCN(C)C)c1ccc(N/C(=C2\C(=O)Nc3ccccc32)c2ccccc2)cc1` [Example 342, (Z)-3-{1-[4-(N-(2-dimethylaminoethyl)-N-isopropylcarbonyl-amino)-phenylamino]-1-phenyl-methylidene}-2-indolinone], the melting point lay within 280 to 282 °C.
Then `Cl.NCC(=O)NCc1ccc(N/C(=C2\C(=O)Nc3ccc([N+](=O)[O-])cc32)c2ccccc2)cc1`, with 225 to 228 °C; and `CN(C)C(=O)c1cccc(N/C(=C2\C(=O)Nc3ccccc32)c2ccccc2)c1` [Example 22, (Z)-3-[1-(3-dimethylaminocarbonyl-phenylamino)-1-phenyl-methylidene]-2-indolinone], with 261 to 263 °C; and `O=C1Nc2ccc([N+](=O)[O-])cc2/C1=C(/Nc1ccc(CNCCO)cc1)c1ccccc1` [Example 239, (Z)-3-{1-[4-(2-hydroxy-ethylaminomethyl)-phenylamino]-1-phenyl-methylidene}-5-nitro-2-indolinone], with 196 to 198 °C.
Compound `NS(=O)(=O)c1ccc(N/C(=C2\C(=O)Nc3ccccc32)c2ccccc2)cc1` [Example 396, (Z)-3-{1-[4-(aminosulphonyl)-phenylamino]-1-phenyl-methylidene}-2-indolinone] registered a melting point of 254 °C.
Regarding `O=C(O)CN(C(=O)c1ccccc1)c1ccc(N/C(=C2\C(=O)Nc3ccccc32)c2ccccc2)cc1` [Example 361, (Z)-3-{1-[4-(N-carboxymethyl-N-benzoyl-amino)-phenylamino]-1-phenyl-methylidene}-2-indolinone], the melting point was 277 °C (dec.).
